The values that follow come from patent US20110143948A1, “MOLECULAR SIGNATURES AND BIOMARKERS ASSOCIATED WITH MELANOMA AND METHODS OF USE THEREOF” (priority 2008, published 2011).

This data set has as its system ncRNAs (SEQ ID NO 28-89). The experiment in a line: ncRNA arrays of melanocytes, keratinocytes, normal skin, melanoma cell lines and patient samples. Details: species or system human. Particulars: for ncRNA array expression, patient 2: melanoma patient 2 sample compared to normal skin; for ncRNA array expression, patient 3: melanoma patient 3 sample compared to normal skin; for ncRNA array expression, patient 4: melanoma patient 4 sample compared to normal skin; for ncRNA array expression, patient 5: melanoma patient 5 sample compared to normal skin; for ncRNA array expression, patient 6: melanoma patient 6 sample compared to normal skin; for ncRNA array expression, patient 7: melanoma patient 7 sample compared to normal skin; for ncRNA array expression, patient 8: melanoma patient 8 sample compared to normal skin; for ncRNA array expression, patient 9: melanoma patient 9 sample compared to normal skin; for ncRNA array expression, patient 10: melanoma patient 10 sample compared to normal skin; for ncRNA array expression, patient 19: melanoma patient 19 sample compared to normal skin; for ncRNA array expression, patient 20: melanoma patient 20 sample compared to normal skin; for ncRNA array expression, patient 21: melanoma patient 21 sample compared to normal skin; for ncRNA array expression, patient 22: melanoma patient 22 sample compared to normal skin; for ncRNA array expression, patient 23: melanoma patient 23 sample compared to normal skin; for ncRNA array expression, patient 24: melanoma patient 24 sample compared to normal skin; for ncRNA array expression, patient 25: melanoma patient 25 sample compared to normal skin; for ncRNA array expression, patient 26: melanoma patient 26 sample compared to normal skin; for ncRNA array expression, patient 27: melanoma patient 27 sample compared to normal skin; for ncRNA array expression, patient 28: melanoma patient 28 sample compared to normal skin; for ncRNA array expression, patient 29: melanoma patient 29 sample compared to normal skin; for ncRNA array expression, patient 30: melanoma patient 30 sample compared to normal skin. The gist of the method: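 Total RNA from melanocytes, keratinocytes, normal human skin, melanoma cell lines and melanoma patient samples was profiled on an array of >10,000 putative (>200 nt) human and mouse ncRNAs plus RefSeq mRNA probes. Expression was compared with melanocytes or normal skin, keratinocyte signatures were subtracted, and hits were validated by qRT-PCR and Northern blot.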

For the substance “SEQ ID NO 64 (TTGCCTAGGAACAAAGAAGGCTTGTGAGGAGATCAAGGAACTTACATGAAATTGTAGGAA; listed as DNA, chemistry not given here; listed as Homo sapiens)”, the “ncRNA array expression, patient 2” value came to 2.496; the “ncRNA array expression, patient 3” value came out at 1.673; the “ncRNA array expression, patient 4” value was 4.824; the “ncRNA array expression, patient 5” value is listed as 1.546. The “ncRNA array expression, patient 6” value is 1.8; the “ncRNA array expression, patient 7” value came out at 1.389; the “ncRNA array expression, patient 8” value is 2.2638; the “ncRNA array expression, patient 9” value turned out to be 1.339. Besides, the “ncRNA array expression, patient 10” value is given as 2.481; the “ncRNA array expression, patient 19” value is given as 0.2184; the “ncRNA array expression, patient 20” value turned out to be 2.311; the “ncRNA array expression, patient 21” value is on record as 2.601. The “ncRNA array expression, patient 22” value came out at 1.302; the “ncRNA array expression, patient 23” value was found to be 0.9911; the “ncRNA array expression, patient 24” value was 2.424; the “ncRNA array expression, patient 25” value was 2.502. In addition, the “ncRNA array expression, patient 26” value stood at 2.729; the “ncRNA array expression, patient 27” value is 2.69; the “ncRNA array expression, patient 28” value worked out at 2.932; the “ncRNA array expression, patient 29” value worked out at 1.473. For the same substance, the “ncRNA array expression, patient 30” value is −2.097.

Regarding “SEQ ID NO 65 (CACCGTTTTACTTTTTGTGGGGAGGGGAAGCAGTATCAAAATTTCTTCGGGCGCCAGAAC; listed as DNA, chemistry not given here; listed as Homo sapiens)”, the “ncRNA array expression, patient 2” value is reported as −1.177; the “ncRNA array expression, patient 3” value is recorded as −1.344; the “ncRNA array expression, patient 4” value is reported as −1.215; the “ncRNA array expression, patient 5” value is given as −1.301. Moreover, the “ncRNA array expression, patient 6” value is given as −1.643; the “ncRNA array expression, patient 7” value is reported as −1.264; the “ncRNA array expression, patient 8” value is −1.391; the “ncRNA array expression, patient 9” value is listed as −1.267. Further, the “ncRNA array expression, patient 10” value is −0.3046; the “ncRNA array expression, patient 19” value is −0.6567; the “ncRNA array expression, patient 20” value is −1.283; the “ncRNA array expression, patient 21” value is reported as −1.289. Moreover, the “ncRNA array expression, patient 22” value was −1.03; the “ncRNA array expression, patient 23” value is listed as −1.597; the “ncRNA array expression, patient 24” value is reported as −1.241; the “ncRNA array expression, patient 25” value is listed as −1.384. Besides, the “ncRNA array expression, patient 26” value was −1.415; the “ncRNA array expression, patient 27” value is given as −1.388; the “ncRNA array expression, patient 28” value is reported as −1.421; the “ncRNA array expression, patient 29” value is −1.2518. The “ncRNA array expression, patient 30” value is listed as 0.5803.

As to “SEQ ID NO 66 (TCCTTTTTATCTTGCACTCAGATGGTATTTTTAGAGATGTTTCTTCAATCAAAACAAGAT; listed as DNA, chemistry not given here; listed as Homo sapiens)”, the “ncRNA array expression, patient 2” value turned out to be 2.553; the “ncRNA array expression, patient 3” value is reported as 2.044; the “ncRNA array expression, patient 4” value came to 2.799; the “ncRNA array expression, patient 5” value stood at 1.983. Also, the “ncRNA array expression, patient 6” value is on record as 2.127; the “ncRNA array expression, patient 7” value was 2.319; the “ncRNA array expression, patient 8” value was determined as 2.869; the “ncRNA array expression, patient 9” value was found to be 1.498. Further, the “ncRNA array expression, patient 10” value was 1.587; the “ncRNA array expression, patient 19” value is 0.7228; the “ncRNA array expression, patient 20” value is recorded as 2.462; the “ncRNA array expression, patient 21” value turned out to be 2.263. For the same substance, the “ncRNA array expression, patient 22” value is reported as 1.15; the “ncRNA array expression, patient 23” value is recorded as 1.37; the “ncRNA array expression, patient 24” value is reported as 1.434; the “ncRNA array expression, patient 25” value was 2.534. The “ncRNA array expression, patient 26” value is recorded as 2.984; the “ncRNA array expression, patient 27” value came out at 2.334; the “ncRNA array expression, patient 28” value was 2.749; the “ncRNA array expression, patient 29” value is recorded as 3.271. The “ncRNA array expression, patient 30” value was −2.558.

“SEQ ID NO 67 (TTCCCTATTCCATCCTTTGATGGGTGGCCTGTTACACGTTTGGAAATAAAAACAAGTGGG; listed as DNA, chemistry not given here; listed as Homo sapiens)”: the “ncRNA array expression, patient 2” value is recorded as 2.053; the “ncRNA array expression, patient 3” value turned out to be 1.721; the “ncRNA array expression, patient 4” value is recorded as 0.6532; the “ncRNA array expression, patient 5” value turned out to be 4.146. Moreover, the “ncRNA array expression, patient 6” value came out at 1.481; the “ncRNA array expression, patient 7” value is 2.486; the “ncRNA array expression, patient 8” value was 1.375; the “ncRNA array expression, patient 9” value amounted to 1.111. Moreover, the “ncRNA array expression, patient 10” value was 3.887; the “ncRNA array expression, patient 19” value was found to be 0.7069; the “ncRNA array expression, patient 20” value is given as 1.071; the “ncRNA array expression, patient 21” value worked out at 3.856. The “ncRNA array expression, patient 22” value was found to be 1.186; the “ncRNA array expression, patient 23” value is recorded as 2.369; the “ncRNA array expression, patient 24” value is 1.045; the “ncRNA array expression, patient 25” value stood at 0.3622. The “ncRNA array expression, patient 26” value stood at 0.8179; the “ncRNA array expression, patient 27” value was found to be 1.392; the “ncRNA array expression, patient 28” value worked out at 6.659; the “ncRNA array expression, patient 29” value amounted to 2.096. Besides, the “ncRNA array expression, patient 30” value is −1.191.

With “SEQ ID NO 68 (CAAAAAGAAATCTTGTTTACTTGTAAAAATATAGACTACCTCCTACTTGCCACCGTTAAG; listed as DNA, chemistry not given here; listed as Homo sapiens)”, the “ncRNA array expression, patient 2” value was −1.029; the “ncRNA array expression, patient 3” value was −0.899; the “ncRNA array expression, patient 4” value was −1.233; the “ncRNA array expression, patient 5” value is −1.828. For the same substance, the “ncRNA array expression, patient 6” value is −0.6441; the “ncRNA array expression, patient 7” value was −2.078; the “ncRNA array expression, patient 8” value is −0.8097; the “ncRNA array expression, patient 9” value was −1.121. The “ncRNA array expression, patient 10” value is −1.445; the “ncRNA array expression, patient 19” value is reported as −0.5985; the “ncRNA array expression, patient 20” value is recorded as −1.379; the “ncRNA array expression, patient 21” value is on record as −1.385. The “ncRNA array expression, patient 22” value is −0.8953; the “ncRNA array expression, patient 23” value is on record as −0.7105; the “ncRNA array expression, patient 24” value is −1.38; the “ncRNA array expression, patient 25” value was −1.607. The “ncRNA array expression, patient 26” value is −1.329; the “ncRNA array expression, patient 27” value is recorded as −1.5151; the “ncRNA array expression, patient 28” value is −1.556; the “ncRNA array expression, patient 29” value is reported as −1.309. Also, the “ncRNA array expression, patient 30” value was −0.1058.

As for “SEQ ID NO 69 (AGAGTTCGCACTGGGAAGAGTTAAAAAATAAACATTTACAAGGACGAGGAAAGCGGCCCC; listed as DNA, chemistry not given here; listed as Homo sapiens)”, the “ncRNA array expression, patient 2” value is listed as −1.697; the “ncRNA array expression, patient 3” value was −1.8068; the “ncRNA array expression, patient 4” value was −1.369; the “ncRNA array expression, patient 5” value is listed as −1.797. Besides, the “ncRNA array expression, patient 6” value is on record as −0.5526; the “ncRNA array expression, patient 7” value is recorded as −1.8141; the “ncRNA array expression, patient 8” value is recorded as −1.777; the “ncRNA array expression, patient 9” value is −1.618. The “ncRNA array expression, patient 10” value is −1.696; the “ncRNA array expression, patient 19” value is reported as −0.9749; the “ncRNA array expression, patient 20” value is recorded as −1.422; the “ncRNA array expression, patient 21” value is listed as −1.5966. Also, the “ncRNA array expression, patient 22” value was −0.8782; the “ncRNA array expression, patient 23” value is given as −0.2153; the “ncRNA array expression, patient 24” value is recorded as −1.796; the “ncRNA array expression, patient 25” value was −1.178. For the same substance, the “ncRNA array expression, patient 26” value is listed as −1.015; the “ncRNA array expression, patient 27” value is −0.7594; the “ncRNA array expression, patient 28” value is recorded as −1.693; the “ncRNA array expression, patient 29” value is recorded as −1.645. In addition, the “ncRNA array expression, patient 30” value is 0.8457.

“SEQ ID NO 70 (AGTTATAGAGGAGGCTCAGGAGGATCTGGGGAAACGGGACCAGAGGGTAAGATGGGTTAT; listed as DNA, chemistry not given here; listed as Homo sapiens)”: the “ncRNA array expression, patient 2” value is listed as −1.553; the “ncRNA array expression, patient 3” value is −1.673; the “ncRNA array expression, patient 4” value is −1.217; the “ncRNA array expression, patient 5” value was −1.521. Besides, the “ncRNA array expression, patient 6” value is on record as −1.483; the “ncRNA array expression, patient 7” value was −1.751; the “ncRNA array expression, patient 8” value was −2.182; the “ncRNA array expression, patient 9” value was −1.366. In addition, the “ncRNA array expression, patient 10” value is −0.6931; the “ncRNA array expression, patient 19” value is recorded as −1.792; the “ncRNA array expression, patient 20” value is recorded as −1.615; the “ncRNA array expression, patient 21” value is reported as −1.1. For the same substance, the “ncRNA array expression, patient 22” value is given as −1.351; the “ncRNA array expression, patient 23” value is listed as −0.7876; the “ncRNA array expression, patient 24” value is listed as −1.593; the “ncRNA array expression, patient 25” value was −1.473. For the same substance, the “ncRNA array expression, patient 26” value is recorded as −1.495; the “ncRNA array expression, patient 27” value is on record as −1.848; the “ncRNA array expression, patient 28” value was −1.549; the “ncRNA array expression, patient 29” value is on record as −1.625. The “ncRNA array expression, patient 30” value is listed as −0.6666.
